Test results taken from patent US10265303B2, “Hyperphenylalaninemia and treatments thereof” (BERGEN TEKNOLOGIOVERFØRING AS, priority 2015, dated 2019).

Legend:
[1] = molecular target: full-length tetrameric wild-type hPAH (Homo sapiens, UniProt P00439); conditions: 137.8 μM compound, 2% DMSO
Experimental: (§1) Tetrameric full length wild-type (WT) human PAH (hPAH) and truncated ΔN102/ΔC24-hPAH corresponding to a dimeric form containing the catalytic domain of known crystal structure were recombinantly expressed in E. coli fused to maltose-binding protein and purified by amylose-affinity chromatography and further cleaved and isolated to homogeneity essentially as described [Martinez, A., et al., Biochem. J., 1995. 306: p. 589-597]. Protein concentration was measured in a NanoDrop spectrophotometer (Thermo Scientific) using the absorbance at 280 nm and the theoretical molar extinction coefficient of 49780 M^−1 cm^−1 for WT-PAH and 46675 M^−1 cm^−1 for ΔN102/ΔC24-hPAH.
(§2) PAH activity on isolated recombinant enzymes was measured at 37° C. for 1 min with quantification of L-Tyr formed by HPLC with fluorimetric detection, essentially as described [Martinez et al. supra] with the indicated concentrations of the compounds. […] After an equilibration of the plate at 37° C. for 3 min the reaction was initiated by adding 75 μM BH4 (Schircks Laboratories, Jona, Switzerland) in 5 mM DTT and stopped after 1 min by adding 50 μl of 2% (v/v) acetic acid in ethanol (all concentrations referred to a final reaction volume of 50 μl) prior to determination of L-Tyr produced by HPLC with fluorimetric detection (γexcitation=274 nm; γemission=304 nm). Controls with 2% DMSO without compound were routinely assayed as references for data processing. A BRAVO automated liquid handling platform was used in these assays.
(§3) The steady-state kinetic parameters were estimated with 0.25 μg hPAH (0.965 μM subunit), 1 mM L-Phe and different BH4 concentrations in the range 0-400 μM, and with 100 μM BH4 and L-Phe (0-1 mM). The saturation curves were fitted to hyperbolic (for BH4) or sigmoidal (for L-Phe) kinetic models with SigmaPlot v. 9.0. (SPSS). Kinetic parameters are presented as mean±SEM obtained from nonlinear regression analysis.

[2] = molecular target: truncated dimeric hPAH ΔN102/ΔC24 (Homo sapiens, UniProt P00439); conditions: 137.8 μM compound, 2% DMSO, 1 mM L-Phe
Experimental: as §1, §2, §3

full-length tetrameric wild-type hPAH, sequence (P00439 whole entry, the tested form may be a part): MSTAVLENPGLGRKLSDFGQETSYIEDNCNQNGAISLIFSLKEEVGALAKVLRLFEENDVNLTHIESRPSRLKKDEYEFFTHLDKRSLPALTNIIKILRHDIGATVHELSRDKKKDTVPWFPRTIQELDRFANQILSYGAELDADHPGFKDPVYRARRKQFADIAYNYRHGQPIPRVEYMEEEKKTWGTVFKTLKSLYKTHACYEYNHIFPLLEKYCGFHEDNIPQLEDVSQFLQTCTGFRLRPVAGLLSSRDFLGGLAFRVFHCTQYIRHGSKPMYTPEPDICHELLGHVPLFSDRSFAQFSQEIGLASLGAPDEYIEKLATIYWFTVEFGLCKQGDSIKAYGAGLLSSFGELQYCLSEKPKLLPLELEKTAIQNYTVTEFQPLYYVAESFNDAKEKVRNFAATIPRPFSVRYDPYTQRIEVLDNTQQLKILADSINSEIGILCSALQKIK
truncated dimeric hPAH ΔN102/ΔC24, sequence (P00439 103-428 limits assumed): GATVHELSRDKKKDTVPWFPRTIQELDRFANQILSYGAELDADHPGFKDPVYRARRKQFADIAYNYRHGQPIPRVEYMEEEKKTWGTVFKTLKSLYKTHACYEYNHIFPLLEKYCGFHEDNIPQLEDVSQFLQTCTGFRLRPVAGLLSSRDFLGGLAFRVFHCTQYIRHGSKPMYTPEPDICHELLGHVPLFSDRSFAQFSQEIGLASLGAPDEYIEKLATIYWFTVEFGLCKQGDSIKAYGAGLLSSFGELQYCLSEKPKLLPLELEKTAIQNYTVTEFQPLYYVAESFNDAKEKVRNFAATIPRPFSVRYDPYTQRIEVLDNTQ

Question: `COc1cc(Cc2cnc(N)nc2N)cc(OC)c1OC` [c53, trimethoprim] was tested. Which “effect on kinetic parameters for L-Phe (Vmax and S0.5)” value ([1]; 100 μM BH4) did it give?
Answer: does not affect the kinetic parameters for the substrate

Question: And the “effect on Vmax and Km for BH4” value ([1]; 1 mM L-Phe)?
Answer: decreased Vmax and Km for the cofactor

Question: What about the “mode of inhibition towards BH4” value ([1]; 1 mM L-Phe) of the same compound?
Answer: uncompetitive inhibition

Question: What about the “effect on Vmax and Km for BH4” value [2] of the same compound?
Answer: did not change the Vmax or Km-values for BH4
